Like-named read-outs stand apart in the source and are kept apart here.
Target: T1, rat brain farnesyl protein transferase (Rattus norvegicus, UniProt Q02293+Q04631)
T1 construct: 40-fold purified rat brain farnesyl protein transferase; from tissue; host or cells: rat brain
Assay: Protein:farnesyltransferase (PFT/FPT) inhibitory activity assay
Type: biochemical

[1] = Hepes (without 5 mM phosphate), read-out: Farnesyl Protein Transferase Inhibition, Hepes, IC50
[2] = Hepes/5 mM PO4^-3, pH 7.4, read-out: Farnesyl Protein Transferase Inhibition, Hepes/5 mM PO4^-3, IC50

Row | SMILES | IC50 [1] [µM] | IC50 [2] [µM]
1 | CCC(C)OC(=O)[C@H](Cc1c[nH]cn1)NC(=O)C(Cc1cccc2ccccc12)Cc1cccc2ccccc12 (mixture of isomers) [Example 14, (S)-3-(1H-Imidazol-4-yl)-2-(3-naphthalen-1-yl-2-naphthalen-1-ylmethyl-propionylamino)-propionic acid, (±)-sec-butyl ester] | 0.82 | 0.54
2 | CC(C#N)OC(=O)[C@H](Cc1c[nH]cn1)NC(=O)C(Cc1cccc2ccccc12)Cc1cccc2ccccc12 (mixture of isomers) [Example 61, (S)-3-(1H-Imidazol-4-yl)-2-(3-naphthalen-1-yl-2-naphthalen-1-ylmethyl-propionylamino)-propionic acid, (±)-1-cyano-ethyl ester] | 0.64 | 0.61
3 | CCCCOC(=O)[C@H](Cc1c[nH]cn1)NC(=O)C(Cc1cccc2ccccc12)Cc1cccc2ccccc12 [Example 9, (S)-3-(1H-Imidazol-4-yl)-2-(3-naphthalen-1-yl-2-naphthalen-1-ylmethyl-propionylamino)-propionic acid, butyl ester] | 1.3 | 1.1
4 | O=C(N[C@@H](Cc1c[nH]cn1)C(=O)OCc1ccccc1)C(Cc1cccc2ccccc12)Cc1cccc2ccccc12 [Example 10, (S)-3-(1H-Imidazol-4-yl)-2-(3-naphthalen-1-yl-2-naphthalen-1-ylmethyl-propionylamino)-propionic acid, benzyl ester] | 4.2 | 2.9
5 | O=C(N[C@@H](Cc1c[nH]cn1)C(=O)OC1CCCCC1)C(Cc1cccc2ccccc12)Cc1cccc2ccccc12 [Example 11, (S)-3-(1H-Imidazol-4-yl)-2-(3-naphthalen-1-yl-2-naphthalen-1-ylmethyl-propionylamino)-propionic acid, cyclohexyl ester] | 20 | 14
6 | O=C(N[C@@H](Cc1c[nH]cn1)C(=O)OCC1CC1)C(Cc1cccc2ccccc12)Cc1cccc2ccccc12 [Example 12, (S)-3-(1H-Imidazol-4-yl)-2-(3-naphthalen-1-yl-2-naphthalen-1-ylmethyl-propionylamino)-propionic acid, cyclopropylmethyl ester] | 0.4 | 0.25
7 | CCCCc1nc(COC(=O)[C@H](Cc2c[nH]cn2)NC(=O)C(Cc2cccc3ccccc23)Cc2cccc3ccccc23)c[nH]1 [Example 13, (S)-3-(1H-Imidazol-4-yl)-2-(3-naphthalen-1-yl-2-naphthalen-1-ylmethyl-propionylamino)-propionic acid, 2-butyl-1H-imidazol-4-ylmethyl ester] | 2.1 | 1.7
8 | C#CCOC(=O)[C@H](Cc1c[nH]cn1)NC(=O)C(Cc1cccc2ccccc12)Cc1cccc2ccccc12 [Example 16, (S)-3-(1H-Imidazol-4-yl)-2-(3-naphthalen-1-yl-2-naphthalen-1-ylmethyl-propionylamino)-propionic acid, prop-2-ynyl ester] | 0.5 | 0.59
9 | O=C(N[C@@H](Cc1c[nH]cn1)C(=O)OCCOCc1ccccc1)C(Cc1cccc2ccccc12)Cc1cccc2ccccc12 [Example 18, (S)-3-(1H-Imidazol-4-yl)-2-(3-naphthalen-1-yl-2-naphthalen-1-ylmethyl-propionylamino)-propionic acid, 2-benzyloxyethyl ester] | 0.57 | 0.54
10 | O=C(N[C@@H](Cc1c[nH]cn1)C(=O)OCCc1cccs1)C(Cc1cccc2ccccc12)Cc1cccc2ccccc12 [Example 19, (S)-3-(1H-Imidazol-4-yl)-2-(3-naphthalen-1-yl-2-naphthalen-1-ylmethyl-propionylamino)-propionic acid, 2-thiophen-2-yl-ethyl ester] | 1.1 | 1.1
11 | O=C(N[C@@H](Cc1c[nH]cn1)C(=O)OCc1ccsc1)C(Cc1cccc2ccccc12)Cc1cccc2ccccc12 [Example 20, (S)-3-(1H-Imidazol-4-yl)-2-(3-naphthalen-1-yl-2-naphthalen-1-ylmethyl-propionylamino)-propionic acid, thiophen-3-ylmethyl ester] | 3.5 | 2.4
12 | CCN(CC)CCOC(=O)[C@H](Cc1c[nH]cn1)NC(=O)C(Cc1cccc2ccccc12)Cc1cccc2ccccc12 [Example 21, (S)-3-(1H-Imidazol-4-yl)-2-(3-naphthalen-1-yl-2-naphthalen-1-ylmethyl-propionylamino)-propionic acid, 2-diethylamino-ethyl ester] | 21 | 9
13 | NS(=O)(=O)c1ccc(CCNC(=O)[C@H](Cc2c[nH]cn2)NC(=O)C(Cc2cccc3ccccc23)Cc2cccc3ccccc23)cc1 [Example 35] | 15 | 14
14 | O=C(N[C@@H](Cc1c[nH]cn1)C(=O)NCCOCc1ccccc1)C(Cc1cccc2c1CCCC2)Cc1cccc2c1CCCC2 [Example 38, (S)-N-[1-(2-Benzyloxy-ethylcarbamoyl)-2-(1H-imidazol-4-yl)-ethyl]-3-(5,6,7,8-tetrahydro-naphthalen-1-yl)-2-(5,6,7,8-tetrahydro-naphthalen-1-ylmethyl)-propionamide] | 0.78 | 0.85
15 | COC(=O)[C@H](Cc1c[nH]cn1)NC(=O)C(Cc1csc2ccccc12)Cc1csc2ccccc12 [Example 39, (S)-2-(3-Benzo[b]thiophen-3-yl-2-benzo[b]thiophen-3-ylmethyl-propionylamino)-3-(1H-imidazol-4-yl)-propionic acid, methyl ester] | 1.2 | 0.97

More lines, now with the values ahead:

Row | IC50 [1] [µM] | IC50 [2] [µM] | SMILES
16 | 12 | 10 | COC(=O)[C@@H](Cc1c[nH]cn1)NC(=O)C(Cc1cccc2ccccc12)Cc1cccc2ccccc12 [Example 2, (R)-3-(1H-Imidazol-4-yl)-2-(3-naphthalen-1-yl-2-naphthalen-1-ylmethyl-propionylamino)-propionic acid, methyl ester]
17 | 1 | 2.3 | O=C(N[C@@H](Cc1c[nH]cn1)C(=O)O)C(Cc1cccc2ccccc12)Cc1cccc2ccccc12 [Example 3, (S)-3-(1H-Imidazol-4-yl)-2-(3-naphthalen-1-yl-2-naphthalen-1-ylmethyl-propionylamino)-propionic acid]
18 | 6.1 | 19.5 | O=C(N[C@H](Cc1c[nH]cn1)C(=O)O)C(Cc1cccc2ccccc12)Cc1cccc2ccccc12 [Example 4, (R)-3-(1H-Imidazol-4-yl)-2-(3-naphthalen-1-yl-2-naphthalen-1-ylmethyl-propionylamino)-propionic acid]
19 | 5.8 | 4.3 | O=C(N[C@@H](Cc1c[nH]cn1)C(=O)OCCN1CCOCC1)C(Cc1cccc2ccccc12)Cc1cccc2ccccc12 [Example 22, (S)-3-(1H-Imidazol-4-yl)-2-(3-naphthalen-1-yl-2-naphthalen-1-ylmethyl-propionylamino)-propionic acid, 2-morpholin-4-yl-ethyl ester]
20 | 5.3 | 3.8 | NC(=O)[C@H](Cc1c[nH]cn1)NC(=O)C(Cc1cccc2ccccc12)Cc1cccc2ccccc12 [Example 24, (S)-N-[1-Carbamoyl-2-(1H-imidazol-4-yl)-ethyl]-3-naphthalen-1-yl-2-naphthalen-1-ylmethyl-propionamide]
21 | 1.9 | 1.5 | O=C(N[C@@H](Cc1c[nH]cn1)C(=O)NCCn1ccnc1)C(Cc1cccc2ccccc12)Cc1cccc2ccccc12 [Example 25, (S)-N-[2-(1H-Imidazol-4-yl)-1-(2-imidazol-1-yl-ethylcarbamoyl)-ethyl]-3-naphthalen-1-yl-2-naphthalen-1-ylmethyl-propionamide]
22 | 12 | 8.7 | CCSCCNC(=O)[C@H](Cc1c[nH]cn1)NC(=O)C(Cc1cccc2ccccc12)Cc1cccc2ccccc12 [Example 26, (S)-N-[1-(2-Ethylsulfanyl-ethylcarbamoyl)-2-(1H-imidazol-4-yl)-ethyl]-3-naphthalen-1-yl-2-naphthalen-1-ylmethyl-propionamide]
23 | 8.1 | 4.2 | O=C(N[C@@H](Cc1c[nH]cn1)C(=O)NCCCn1ccnc1)C(Cc1cccc2ccccc12)Cc1cccc2ccccc12 [Example 28]
24 | 3.2 | 3.7 | O=C(N[C@@H](Cc1c[nH]cn1)C(=O)NCCO)C(Cc1cccc2ccccc12)Cc1cccc2ccccc12 [Example 29, (S)-N-[1-(2-Hydroxy-ethylcarbamoyl)-2-(1H-imidazol-4-yl)-ethyl]-3-naphthalen-1-yl-2-naphthalen-1-ylmethyl-propionamide]
25 | 4.6 | 3.5 | CC(C)NC(=O)[C@H](Cc1c[nH]cn1)NC(=O)C(Cc1cccc2ccccc12)Cc1cccc2ccccc12 [Example 30, (S)-N-[2-(1H-Imidazol-4-yl)-1-isopropylcarbamoyl-ethyl]-3-naphthalen-1-yl-2-naphthalen-1-ylmethyl-propionamide]
26 | 26 | 15 | O=C(N[C@@H](Cc1c[nH]cn1)C(=O)NCCN1CCOCC1)C(Cc1cccc2ccccc12)Cc1cccc2ccccc12 [Example 31, (S)-N-[2-(1H-Imidazol-4-yl)-1-(2-morpholin-4-yl-ethylcarbamoyl)-ethyl]-3-naphthalen-1-yl-2-naphthalen-1-ylmethyl-propionamide]
27 | 19 | 14 | CCN(CC)CCNC(=O)[C@H](Cc1c[nH]cn1)NC(=O)C(Cc1cccc2ccccc12)Cc1cccc2ccccc12 [Example 32]
28 | 2.9 | 2 | CCNC(=O)[C@H](Cc1c[nH]cn1)NC(=O)C(Cc1cccc2ccccc12)Cc1cccc2ccccc12 [Example 34, (S)-N-[1-Ethylcarbamoyl-2-(1H-imidazol-4-yl)-ethyl]-3-naphthalen-1-yl-2-naphthalen-1-ylmethyl-propionamide]
29 | 2.6 | 3.2 | CC(=O)NCCSC(=O)[C@H](Cc1c[nH]cn1)NC(=O)C(Cc1cccc2ccccc12)Cc1cccc2ccccc12 [Example 40, (S)-3-(1H-Imidazol-4-yl)-2-(3-naphthalen-1-yl-2-naphthalen-1-ylmethyl-propionylamino)-thiopropionic acid, S-(2-acetylamino-ethyl)ester]

— patent US6008372A, “Substituted dinaphthylmethyl and diheteroarylmethylacetyl histidine inhibitors of protein farnesyltransferase” (Warner-Lambert Company, priority 1998, dated 1999)
